pIC50: −log10 of the molar value.
Legend:
Assay in all cases: Carna kinome panel
Format in all cases: biochemical
CDK2/CycA2 = CDK2/CycA2 (Homo sapiens (Human), UniProt P24941)
Source text: (§1) 2) Off-Chip Mobility Shift Assay (MSA).

CDK2/CycE1 = CDK2/CycE1 (Homo sapiens (Human), UniProt P24941)
Source text: as §1

CDK3/CycE1 = CDK3/CycE1 (Homo sapiens (Human), UniProt Q00526)
Source text: as §1

CDK9/CycT1 = CDK9/CycT1 (Homo sapiens (Human), UniProt P50750)
Source text: as §1

PIK3CA/PIK3R1 = PIK3CA/PIK3R1 (Homo sapiens (Human), UniProt P42336)
Sequence of PIK3CA/PIK3R1 (P42336 whole entry, looked up): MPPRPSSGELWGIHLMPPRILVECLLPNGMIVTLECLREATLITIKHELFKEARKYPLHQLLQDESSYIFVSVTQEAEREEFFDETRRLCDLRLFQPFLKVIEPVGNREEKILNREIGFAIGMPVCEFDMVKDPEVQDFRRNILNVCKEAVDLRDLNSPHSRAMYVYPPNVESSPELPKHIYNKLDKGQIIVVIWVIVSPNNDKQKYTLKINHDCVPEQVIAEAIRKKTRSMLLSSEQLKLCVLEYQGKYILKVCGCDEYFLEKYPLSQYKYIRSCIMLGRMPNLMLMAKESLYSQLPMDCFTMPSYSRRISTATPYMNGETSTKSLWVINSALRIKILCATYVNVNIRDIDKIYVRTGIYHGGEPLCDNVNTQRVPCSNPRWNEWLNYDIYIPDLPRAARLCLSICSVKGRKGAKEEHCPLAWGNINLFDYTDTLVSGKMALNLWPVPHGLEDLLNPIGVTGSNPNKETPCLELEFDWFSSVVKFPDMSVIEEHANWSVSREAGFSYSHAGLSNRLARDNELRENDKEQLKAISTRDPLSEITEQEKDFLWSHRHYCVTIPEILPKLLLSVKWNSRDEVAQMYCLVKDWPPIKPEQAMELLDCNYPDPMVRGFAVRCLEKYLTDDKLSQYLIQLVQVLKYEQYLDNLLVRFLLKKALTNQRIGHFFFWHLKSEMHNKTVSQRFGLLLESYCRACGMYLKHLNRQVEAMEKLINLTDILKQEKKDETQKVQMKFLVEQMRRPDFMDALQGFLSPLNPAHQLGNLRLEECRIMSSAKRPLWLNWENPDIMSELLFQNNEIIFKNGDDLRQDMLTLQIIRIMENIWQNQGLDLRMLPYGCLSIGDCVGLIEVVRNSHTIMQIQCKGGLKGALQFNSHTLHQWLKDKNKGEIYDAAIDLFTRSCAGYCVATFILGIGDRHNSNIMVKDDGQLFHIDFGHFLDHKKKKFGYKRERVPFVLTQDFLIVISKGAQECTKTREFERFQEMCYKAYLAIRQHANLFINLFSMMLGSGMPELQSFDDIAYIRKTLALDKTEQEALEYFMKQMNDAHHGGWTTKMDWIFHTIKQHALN
Sequence of PIK3CA/PIK3R1 (P27986 whole entry partner, looked up): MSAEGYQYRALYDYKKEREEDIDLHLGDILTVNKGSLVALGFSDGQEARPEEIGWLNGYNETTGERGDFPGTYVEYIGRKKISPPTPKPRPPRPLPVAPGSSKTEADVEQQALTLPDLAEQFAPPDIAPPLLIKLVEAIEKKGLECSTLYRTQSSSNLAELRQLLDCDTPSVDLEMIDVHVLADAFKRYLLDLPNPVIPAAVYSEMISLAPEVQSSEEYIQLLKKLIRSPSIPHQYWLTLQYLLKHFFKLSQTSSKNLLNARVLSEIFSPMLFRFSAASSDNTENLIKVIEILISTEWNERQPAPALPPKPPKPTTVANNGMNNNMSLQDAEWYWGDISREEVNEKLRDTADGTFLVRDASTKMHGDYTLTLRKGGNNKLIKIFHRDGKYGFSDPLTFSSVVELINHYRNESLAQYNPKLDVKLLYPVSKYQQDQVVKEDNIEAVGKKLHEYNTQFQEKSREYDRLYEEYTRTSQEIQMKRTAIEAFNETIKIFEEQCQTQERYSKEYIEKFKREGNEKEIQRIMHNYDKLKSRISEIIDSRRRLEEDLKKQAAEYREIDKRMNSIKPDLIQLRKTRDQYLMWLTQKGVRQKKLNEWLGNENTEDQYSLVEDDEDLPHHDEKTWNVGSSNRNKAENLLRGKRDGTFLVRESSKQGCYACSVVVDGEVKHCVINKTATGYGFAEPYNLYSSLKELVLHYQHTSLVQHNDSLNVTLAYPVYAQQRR
Source text: as §1

p38γ = p38γ (Homo sapiens (Human), UniProt P53778); conditions: read-out: % Inhibition at 10 μM of the test compound
AurC = AurC (Homo sapiens (Human), UniProt Q9UQB9); conditions: read-out: % Inhibition at 10 μM of the test compound
IRR = IRR (Homo sapiens (Human), UniProt P14616); conditions: read-out: % Inhibition at 10 μM of the test compound
AXL = AXL (Homo sapiens (Human), UniProt P30530); conditions: read-out: % Inhibition at 10 μM of the test compound
FLT1 = FLT1 (Homo sapiens (Human), UniProt P17948); conditions: read-out: % Inhibition at 10 μM of the test compound
PAK6 = PAK6 (Homo sapiens (Human), UniProt Q9NQU5); conditions: read-out: % Inhibition at 10 μM of the test compound
JNK3 = JNK3 (Homo sapiens (Human), UniProt P53779); conditions: read-out: % Inhibition at 10 μM of the test compound
CK1γ2 = CK1γ2 (Homo sapiens (Human), UniProt P78368); conditions: read-out: % Inhibition at 10 μM of the test compound
MAP2K7_Cascade = MAP2K7_Cascade (Homo sapiens (Human), UniProt O14733); conditions: read-out: % Inhibition at 10 μM of the test compound
FYN(isoform b) = FYN(isoform b) (Homo sapiens (Human), UniProt P06241); conditions: read-out: % Inhibition at 10 μM of the test compound
FGFR2 = FGFR2 (Homo sapiens (Human), UniProt P21802); conditions: read-out: % Inhibition at 10 μM of the test compound
CK1γ1 = CK1γ1 (Homo sapiens (Human), UniProt Q9HCP0); conditions: read-out: % Inhibition at 10 μM of the test compound
Sequence of CK1γ1 (Q9HCP0 whole entry): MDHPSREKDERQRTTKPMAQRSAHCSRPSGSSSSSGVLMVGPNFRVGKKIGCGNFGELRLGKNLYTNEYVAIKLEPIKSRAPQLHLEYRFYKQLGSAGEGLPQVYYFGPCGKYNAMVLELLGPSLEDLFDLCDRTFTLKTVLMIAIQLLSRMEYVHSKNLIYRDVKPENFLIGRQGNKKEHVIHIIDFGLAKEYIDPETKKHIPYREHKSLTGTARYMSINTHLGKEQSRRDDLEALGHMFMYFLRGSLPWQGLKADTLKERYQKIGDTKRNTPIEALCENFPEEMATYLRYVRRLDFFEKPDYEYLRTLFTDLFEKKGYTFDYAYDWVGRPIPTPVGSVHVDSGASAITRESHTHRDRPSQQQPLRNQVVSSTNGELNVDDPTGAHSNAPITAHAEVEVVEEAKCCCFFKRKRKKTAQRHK

p38α = p38α (Homo sapiens (Human), UniProt Q16539); conditions: read-out: % Inhibition at 10 μM of the test compound
WNK2 = WNK2 (Homo sapiens (Human), UniProt Q9Y3S1); conditions: read-out: % Inhibition at 10 μM of the test compound
AurA = AurA (Homo sapiens (Human), UniProt O14965); conditions: read-out: % Inhibition at 10 μM of the test compound
HGK = HGK (Homo sapiens (Human), UniProt O95819); conditions: read-out: % Inhibition at 10 μM of the test compound
KDR = KDR (Homo sapiens (Human), UniProt P35968); conditions: read-out: % Inhibition at 10 μM of the test compound
Sequence of KDR (P35968 20-1356): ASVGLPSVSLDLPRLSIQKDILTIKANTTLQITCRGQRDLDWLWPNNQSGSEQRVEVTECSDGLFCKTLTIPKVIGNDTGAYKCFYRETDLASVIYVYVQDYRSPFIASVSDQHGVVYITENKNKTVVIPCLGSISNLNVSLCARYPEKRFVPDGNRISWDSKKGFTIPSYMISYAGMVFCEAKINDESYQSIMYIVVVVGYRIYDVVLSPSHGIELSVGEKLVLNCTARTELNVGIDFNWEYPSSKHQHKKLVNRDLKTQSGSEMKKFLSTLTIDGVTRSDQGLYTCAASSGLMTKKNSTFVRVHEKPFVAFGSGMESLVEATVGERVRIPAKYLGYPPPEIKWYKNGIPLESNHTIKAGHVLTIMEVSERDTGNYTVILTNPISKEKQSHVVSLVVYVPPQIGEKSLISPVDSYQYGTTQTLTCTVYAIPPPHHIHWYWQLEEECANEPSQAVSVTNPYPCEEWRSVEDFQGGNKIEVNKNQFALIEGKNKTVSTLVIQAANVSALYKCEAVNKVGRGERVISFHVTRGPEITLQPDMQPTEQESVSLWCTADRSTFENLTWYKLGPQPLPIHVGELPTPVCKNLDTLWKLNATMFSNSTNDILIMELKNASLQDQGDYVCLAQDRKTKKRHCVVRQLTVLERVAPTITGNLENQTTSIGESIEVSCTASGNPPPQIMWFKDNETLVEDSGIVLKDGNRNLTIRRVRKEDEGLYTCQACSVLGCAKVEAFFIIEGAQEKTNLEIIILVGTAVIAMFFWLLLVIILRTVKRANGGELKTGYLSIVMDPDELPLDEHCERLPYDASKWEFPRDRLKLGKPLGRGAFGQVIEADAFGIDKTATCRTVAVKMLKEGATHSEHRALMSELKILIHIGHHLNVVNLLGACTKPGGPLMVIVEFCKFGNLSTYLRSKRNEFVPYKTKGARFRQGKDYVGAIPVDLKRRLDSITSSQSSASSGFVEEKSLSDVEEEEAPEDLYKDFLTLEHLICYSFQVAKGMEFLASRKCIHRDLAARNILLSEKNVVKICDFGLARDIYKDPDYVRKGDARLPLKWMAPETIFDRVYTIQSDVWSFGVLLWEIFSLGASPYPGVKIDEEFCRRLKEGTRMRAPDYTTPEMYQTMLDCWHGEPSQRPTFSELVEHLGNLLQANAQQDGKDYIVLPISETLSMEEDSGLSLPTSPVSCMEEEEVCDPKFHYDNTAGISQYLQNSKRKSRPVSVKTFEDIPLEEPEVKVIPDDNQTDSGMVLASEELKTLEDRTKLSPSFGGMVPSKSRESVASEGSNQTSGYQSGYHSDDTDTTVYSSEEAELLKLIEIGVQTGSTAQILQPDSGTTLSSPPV

MUSK = MUSK (Homo sapiens (Human), UniProt O15146); conditions: read-out: % Inhibition at 10 μM of the test compound
KIT(D816E) = KIT(D816E) (Homo sapiens (Human), UniProt P10721, D816E); conditions: read-out: % Inhibition at 10 μM of the test compound
NDR2 = NDR2 (Homo sapiens (Human), UniProt Q9Y2H1); conditions: read-out: % Inhibition at 10 μM of the test compound
SGK = SGK (Homo sapiens (Human), UniProt O00141); conditions: read-out: % Inhibition at 10 μM of the test compound
ABL = ABL (Homo sapiens (Human), UniProt P00519); conditions: read-out: % Inhibition at 10 μM of the test compound
BRSK2 = BRSK2 (Homo sapiens (Human), UniProt Q8IWQ3); conditions: read-out: % Inhibition at 10 μM of the test compound
MST4 = MST4 (Homo sapiens (Human), UniProt Q9P289); conditions: read-out: % Inhibition at 10 μM of the test compound
Sequence of MST4 (Q9P289 whole entry): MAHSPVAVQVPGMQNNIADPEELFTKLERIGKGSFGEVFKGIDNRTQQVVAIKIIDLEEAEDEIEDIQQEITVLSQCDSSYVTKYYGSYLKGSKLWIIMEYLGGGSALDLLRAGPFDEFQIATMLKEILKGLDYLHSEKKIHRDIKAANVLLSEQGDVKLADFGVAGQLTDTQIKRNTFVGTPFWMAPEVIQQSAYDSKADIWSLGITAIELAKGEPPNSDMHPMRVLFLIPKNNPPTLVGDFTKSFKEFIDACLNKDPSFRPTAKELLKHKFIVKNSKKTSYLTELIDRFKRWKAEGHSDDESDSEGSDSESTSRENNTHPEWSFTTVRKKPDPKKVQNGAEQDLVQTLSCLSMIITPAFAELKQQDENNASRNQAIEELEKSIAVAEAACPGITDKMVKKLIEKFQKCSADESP

PDGFRα(D842V) = PDGFRα(D842V) (Homo sapiens (Human), UniProt P16234, D842V); conditions: read-out: % Inhibition at 10 μM of the test compound
CK2α1/β = CK2α1/β (Homo sapiens (Human), UniProt P68400); conditions: read-out: % Inhibition at 10 μM of the test compound
Experimental: Briefly, a selection of compounds was screened against a panel of kinases at a single concentration of 10 μM. […] This was completed using one of two assays, depending on the kinase being examined: 1) IMAP Assay. A solution of 4× inhibitor, 4× substrate/ATP/metal solution and 2× kinase solution was prepared with assay buffer (20 mM HEPES, 0.01% Tween-20, 2 mM DTT, pH 7.4) and mixed, then incubated in 384-well black plates for 1 hour at room temperature. The IMAP binding reagent (IMAP Screening Express kit; Molecular Devices) was added to each well and incubated for 30 minutes. […] 2) Off-Chip Mobility Shift Assay (MSA). A solution of 4× inhibitor, 4× substrate/ATP/metal solution and 2× kinase solution was prepared with assay buffer (20 mM HEPES, 0.01% Triton X-100, 2 mM DTT, pH 7.5) and mixed, then incubated in 384-well plates for 1 or 5 hours depending on the kinase, at room temperature. Termination buffer (QuickScout Screening assist MSA; Carna Biosciences) was added to each well. The entire reaction mixture was then applied to a LabChip3000 system (Caliper Life Science), and the product and substrate peptide peaks were separated and quantified. […] The entire reaction mixture was then applied to a LabChip3000 system (Caliper Life Science), and the product and substrate peptide peaks were separated and quantified.

MET(M1250T) = MET(M1250T) (Homo sapiens (Human), UniProt P08581, M1250T); conditions: read-out: % Inhibition at 10 μM of the test compound
RSK4 = RSK4 (Homo sapiens (Human), UniProt Q9UK32); conditions: read-out: % Inhibition at 10 μM of the test compound
KIT(D816Y) = KIT(D816Y) (Homo sapiens (Human), UniProt P10721, D816Y); conditions: read-out: % Inhibition at 10 μM of the test compound
TSSK1 = TSSK1 (Homo sapiens (Human), UniProt Q9BXA7); conditions: read-out: % Inhibition at 10 μM of the test compound
CaMK2γ = CaMK2γ (Homo sapiens (Human), UniProt Q13555); conditions: read-out: % Inhibition at 10 μM of the test compound
EGFR(L861Q) = EGFR(L861Q) (Homo sapiens (Human), UniProt P00533, L861Q); conditions: read-out: % Inhibition at 10 μM of the test compound
IRAK1 = IRAK1 (Homo sapiens (Human), UniProt P51617); conditions: read-out: % Inhibition at 10 μM of the test compound
PKR = PKR (Homo sapiens (Human), UniProt P19525); conditions: read-out: % Inhibition at 10 μM of the test compound
[1] = read-out: % Inhibition at 10 μM of the test compound

Sequence of CDK9/CycT1 (P50750 whole entry, looked up): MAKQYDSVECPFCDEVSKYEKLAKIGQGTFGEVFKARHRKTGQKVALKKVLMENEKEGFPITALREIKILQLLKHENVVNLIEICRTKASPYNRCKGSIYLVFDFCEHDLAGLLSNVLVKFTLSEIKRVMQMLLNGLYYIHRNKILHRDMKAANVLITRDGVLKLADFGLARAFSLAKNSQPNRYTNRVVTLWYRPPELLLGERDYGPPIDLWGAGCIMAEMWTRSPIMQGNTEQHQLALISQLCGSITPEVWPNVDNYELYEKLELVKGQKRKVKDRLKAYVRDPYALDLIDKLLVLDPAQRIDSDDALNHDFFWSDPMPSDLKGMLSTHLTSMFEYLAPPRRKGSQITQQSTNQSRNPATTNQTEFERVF
Sequence of CDK9/CycT1 (O60563 whole entry partner, looked up): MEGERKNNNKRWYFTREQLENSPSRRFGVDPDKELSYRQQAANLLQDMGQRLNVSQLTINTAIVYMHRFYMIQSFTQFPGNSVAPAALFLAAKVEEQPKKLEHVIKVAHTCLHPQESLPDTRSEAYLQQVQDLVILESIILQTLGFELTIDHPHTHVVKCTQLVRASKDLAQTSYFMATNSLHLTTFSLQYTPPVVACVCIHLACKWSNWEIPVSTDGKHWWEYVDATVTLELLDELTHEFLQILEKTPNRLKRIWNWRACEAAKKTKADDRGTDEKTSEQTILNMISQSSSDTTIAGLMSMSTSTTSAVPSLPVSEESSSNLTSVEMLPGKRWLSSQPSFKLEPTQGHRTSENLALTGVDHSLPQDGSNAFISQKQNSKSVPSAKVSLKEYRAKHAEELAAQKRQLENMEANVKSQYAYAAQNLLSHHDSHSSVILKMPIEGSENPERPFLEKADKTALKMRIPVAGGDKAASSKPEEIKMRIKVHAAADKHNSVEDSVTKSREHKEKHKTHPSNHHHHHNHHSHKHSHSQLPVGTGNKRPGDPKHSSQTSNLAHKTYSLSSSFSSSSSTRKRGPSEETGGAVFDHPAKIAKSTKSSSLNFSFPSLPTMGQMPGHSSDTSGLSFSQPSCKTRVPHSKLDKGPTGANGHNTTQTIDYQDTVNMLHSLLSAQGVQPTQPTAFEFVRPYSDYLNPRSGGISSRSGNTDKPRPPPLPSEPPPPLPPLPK

## CCC1(c2ccccc2)C2=C(CC(C)(C)CC2=O)Nc2ncsc21 (centres unmarked) [Compound 1, 9-Ethyl-6,6-dimethyl-9-phenyl-5,6,7,9-tetrahydrothiazolo[4,5-b]quinolin-8(4H)-one]
CDK2/CycA2
  pIC50: 5.16
CDK2/CycA2; [1]
  inhibition at 10 µM: 58.8%
CDK2/CycE1
  pIC50: 5.07
CDK2/CycE1; [1]
  inhibition at 10 µM: 53.4%
CDK3/CycE1
  pIC50: 5.21
CDK3/CycE1; [1]
  inhibition at 10 µM: 55.5%
CDK9/CycT1
  pIC50: 5.19
CDK9/CycT1; [1]
  inhibition at 10 µM: 60.5%
PIK3CA/PIK3R1
  pIC50: < 5.00
PIK3CA/PIK3R1; [1]
  inhibition at 10 µM: 65.1%
p38γ
  inhibition at 10 µM: 8.9%
AurC
  inhibition at 10 µM: 8.5%
IRR
  inhibition at 10 µM: 6.6%
AXL
  inhibition at 10 µM: 6.5%
FLT1
  inhibition at 10 µM: 6.2%
PAK6
  inhibition at 10 µM: 3.9%
JNK3
  inhibition at 10 µM: 3.1%
CK1γ2
  inhibition at 10 µM: 3.1%
MAP2K7_Cascade
  inhibition at 10 µM: 2.8%
FYN(isoform b)
  inhibition at 10 µM: 2.4%
FGFR2
  inhibition at 10 µM: 1.4%
CK1γ1
  inhibition at 10 µM: 1.2%
p38α
  inhibition at 10 µM: 1.1%
WNK2
  inhibition at 10 µM: 0.5%
AurA
  inhibition at 10 µM: 0.4%
HGK
  inhibition at 10 µM: 0.4%
KDR
  inhibition at 10 µM: 0.2%
MUSK
  inhibition at 10 µM: 0%
KIT(D816E)
  inhibition at 10 µM: -0.2%
NDR2
  inhibition at 10 µM: -1.2%
SGK
  inhibition at 10 µM: -1.7%
ABL
  inhibition at 10 µM: -2.7%
BRSK2
  inhibition at 10 µM: -2.9%
MST4
  inhibition at 10 µM: -3.3%
PDGFRα(D842V)
  inhibition at 10 µM: -3.4%
CK2α1/β
  inhibition at 10 µM: -3.7%
MET(M1250T)
  inhibition at 10 µM: -4.2%
RSK4
  inhibition at 10 µM: -4.6%
KIT(D816Y)
  inhibition at 10 µM: -4.7%
TSSK1
  inhibition at 10 µM: -5%
CaMK2γ
  inhibition at 10 µM: -5.2%
EGFR(L861Q)
  inhibition at 10 µM: -6.1%
IRAK1
  inhibition at 10 µM: -8.9%
PKR
  inhibition at 10 µM: -8.9%
